{"source": "patent US20160067211A1", "about": "“PHARMACEUTICAL COMPOSITION” (Eberhard Karls Universitaet Tuebingen Medizinische Fakultaet, priority 2013, published 2016)", "key": {"SK-MEL-28 melanoma cells": {"system": "SK-MEL-28 melanoma cells", "assay": "Real time cell monitoring assay (xCELLigence), SK-MEL-28", "assay_type": "cell-based, human", "conditions": "SK-MEL-28, 20, 50 and 100 μM, 104 hours, vs. control", "procedure": "FIG. 5: real time cell monitoring of BLM and SK-MEL-28 melanoma cells treated with 6-PN and 8-PN. (A) BML and SK-MEL-28 cells were treated 24 hours after seeding with different concentrations of 6-PN and 8-PN (20 μM, 50 μM and 100 μM) over a 104 hour time period. The cellular impedance was measured over the entire observation time using the xCELLigence™ SP system and is depicted by the cell index (CI). All CI-values were normalized shortly before the treatment started. […] As a positive control, Triton X-100 0.1% was used to induce cell death. Shown are the mean±SD of three independent experiments, each performed in triplicates (B, C). […]\nThe human melanoma cell lines BLM and SK-MEL-28 (2.5×10^3 cells/well) were seeded in 96 well plates. The cells were treated after 24 hours with different concentrations of 6-PN or 8-PN (20 μM, 50 μM and 100 μM) and monitored by measurements of electrical impedance in 15 minutes intervals for an overall time span of in total 104 hours using the xCELLigencer® SP Systems (Roche Applied Science). The cell index values were calculated using the RTCA software (1.0.0.0805). […]\nThe human metastatic melanoma cell lines BLM and SK-MEL-28 were treated once with rising concentrations of 6-PN or 8-PN (20 μM, 50 μM and 100 μM) and monitored continuously for an overall time span of 104 hours using a real time monitoring assay (FIG. 5A). […]"}, "[1]": {"system": "histon protein H3 acetylation in SK-MEL-28 melanoma cells", "assay": "Western blot of acetylated histon H3, SK-MEL-28", "assay_type": "cell-based, human", "conditions": "SK-MEL-28, 100 μM, two hours, vs. DMSO control", "procedure": "FIG. 4: 6-PN and 8-PN induce a hyper acetylation in SK-MEL-28 melanoma cells. Western blot analysis of acetylated histon complex H3 in cellular lysates of BLM and SK-MEL-28 cells treated with 100 μM 6-PN or 8-PN for 1, 2, 4, 12 and 24 h, or with 100 μM SAHA (as reference HDACi) for 24 h. Equal protein loading was verified by vinculin staining (lower rows). At 24 hours (BLM) and 2 hours (SK-MEL-28) after the PN treatment a prominent up-regulation of ac-H3 is detectable. The protein expression levels were estimated performing a densitometric analysis.\n(§1) The following antibodies were used: Anti-Vinculin and Anti-Actin (1:5000, Sigma-Aldrich), Anti-Acetyl-Histon H3 (1:5000, Millipore, Billerica, USA), Anti-Caspase-3 (1:1000), Anti-AKT, Anti-pAKT, Anti-ERK, Anti-pERK, […], Anti-p70S6 Kinase, and Anti-pS6 protein (1:1000), all from Cell Signaling, Frankfurt, Germany), Anti-LC3 (1:5000, Sigma-Aldrich).\nAn incubation of cells with HDACi induces generally a hyperacetylation of histon proteins. Therefore, the acetylation status of the histon protein H3 after treatment with 6-PN or 8-PN was investigated. Corresponding to the HDAC screening results, a direct effect was monitored. […] SAHA was used as control HDACi (at 100 μM, 24 hours treatment)."}, "[2]": {"system": "pS6P, P70S6 kinase, pERK, caspase-3, Bcl-xl in SK-MEL-28 melanoma cells", "assay": "Western blot of signalling proteins", "assay_type": "cell-based, human", "conditions": "SK-MEL-28, 100 μM", "procedure": "FIG. 8: 6-PN and 8-PN decrease expression of pS6p via down regulation of pERK/pP90. Western blot analysis of SK-MEL-28 melanoma cells 1 hour, 2 hours, 4 hours, 12 hours, and 24 hours after treatment with 100 μM 6-PN or 8-PN. 6-PN and 8-PN induced down regulation of pS6p accompanied by a decrease of pERK and pP90, respectively. 6-PN and 8-PN induced time dependent increase of p70s6-kinase.\nas §1\nTo further analyze the type of cell death induced by 6-PN and 8-PN, western blot analyses of SK-MEL-28 melanoma cells were performed 1, 2, 4, 12 and 24 hours after the treatment with 100 μM 6-PN and 8-PN. […] Upon PN treatment an inconsistent expression of oncogenic AKT and phospho-AKT (pAKT) was detected. […] Thus, there was an obvious discrepancy between the expression of pAKT and pS6P. Therefore it was first also looked for the expression of P70S6 kinase and its phosphorylated form. […] Therefore it was next asked whether the S6P could be phosphorylated by a different mechanism. In this respect, activated ERK can phosphorylate the p90 ribosomal S6 kinase (pP90). pP90 also phosphorylates the S6P (in addition to the P70S6 kinase). Since the pP70S6 kinase was absent in the used cells (SK-MEL-28 and BLM), it was hypothesized that the phosphorylation of the S6P was conducted via the pERK/pP90 pathway, independent from the P70S6 signalling. This hypothesis was supported by the parallel down-regulation of the bands for pP90 (Thr359/Ser363) and pS6P 12 hours after the treatment with 6-PN, and the reappearance of both bands after 24 hours (FIG. 8). […] The western blot experiments were repeated with BLM cells under the same treatment conditions and yielded similar results (not shown)."}, "[3]": {"system": "PI (3) K/Akt-signal path in MCF-7 cells", "conditions": "MCF-7 cells in vitro; cited from earlier work"}}}
{"smiles": "CC(C)=CCc1c(O)cc(O)c2c1OC(c1ccc(O)cc1)CC2=O", "note": "(stereo not shown) [8-PN, 5,7-Dihydroxy-2-(4-hydroxy-phenyl)-8-(3-methyl-but-2-enyl)-chroman-4-one]", "values": [{"measurement": "normalized cell index (CI)", "setting": "SK-MEL-28 melanoma cells", "result": "descended over time"}, {"measurement": "histon complex H3 acetylation", "setting": "[1]", "result": "massive increase"}, {"measurement": "protein levels of caspase-3 and Bcl-xl", "setting": "[2]; 1-24 hours", "result": "decreased protein levels"}, {"measurement": "phospho-S6 protein (pS6P) expression", "setting": "[2]; after 4 hours, 12 hours, and 24 hours", "result": "strongly down regulated"}, {"measurement": "pERK expression", "setting": "[2]; after 12 hours and 24 hours", "result": "strong down regulation"}, {"measurement": "P70S6 kinase bands", "setting": "[2]; time-dependent (1-24 hours)", "result": "down-regulated"}, {"measurement": "activation of the PI (3) K/Akt-signal path", "setting": "[3]", "result": "directly inhibits"}]}
